Measurements as given in patent US6930203B2, “Gelling agents or thickeners” (Applied NanoSystems B.V., priority 2001, dated 2005).

assay: Gelation of N,N′-dialkyladaramides (1%) in mixtures of solvents; format: physicochemical; set-up: key: g = gelation; s = soluble; p = precipitates; c = crystallizes; ns = not soluble; v = viscous; g* = unstable gel, precipitates; cg = crystalline gel; settings: 1% gelling agent; Cyclohexane
Excerpt: (§1) Preferred examples include aromatic and nonaromatic hydrocarbons, alcohols, ethers, esters, aldehydes, alkanoic acids, epoxides, amines, halogenated hydrocarbons, silicon oils, vegetable oils, phosphoric esters, sulfoxides, water and mixtures thereof. In order to obtain a gel, the gelling agent or thickener is preferably mixed with the composition to be transformed to a gel in an amount of between 0.01 and 50 wt. %, based on the weight of the composition. In a preferred embodiment, the mixture of the gelling agent or thickener and the composition is heated to allow for an even better gel formation or thickening. Typically, the heating will involve raising the temperature of the mixture to about 30-175° C. until a clear solution is obtained. In an alternative embodiment, the gelling agent is first dissolved in a polar or apolar solvent and then added to or sprayed into a composition or solvent to be converted into a gel.
Gelation of N,N′-dialkyladaramides (1%) in Mixtures of Solvents

SMILES	Gelation in cyclohexane
CC(C)=CCCC(C)CCNC(=O)[C@@H](O)[C@@H](O)[C@H](O)[C@@H](O)C(=O)NCCC(C)CCC=C(C)C (stereo partly drawn) [Example 11, dicitronellyl D-glucaramide]	g*
CCCCCCCCCCCCNC(=O)[C@@H](O)[C@@H](O)[C@H](O)[C@@H](O)C(=O)NCCCCCCCCCCCC [Example 12, didodecyl D-glucaramide]	ns

same assay, conditions: 1% gelling agent; Dioxane

SMILES	Gelation in Dioxane
CC(C)=CCCC(C)CCNC(=O)[C@@H](O)[C@@H](O)[C@H](O)[C@@H](O)C(=O)NCCC(C)CCC=C(C)C (stereo partly drawn) [Example 11, dicitronellyl D-glucaramide]	s
CCCCCCCCCCCCNC(=O)[C@@H](O)[C@@H](O)[C@H](O)[C@@H](O)C(=O)NCCCCCCCCCCCC [Example 12, didodecyl D-glucaramide]	c

same assay, conditions: 1% gelling agent; H2O

SMILES	Gelation in H2O
CC(C)=CCCC(C)CCNC(=O)[C@@H](O)[C@@H](O)[C@H](O)[C@@H](O)C(=O)NCCC(C)CCC=C(C)C (stereo partly drawn) [Example 11, dicitronellyl D-glucaramide]	c
CCCCCCCCCCCCNC(=O)[C@@H](O)[C@@H](O)[C@H](O)[C@@H](O)C(=O)NCCCCCCCCCCCC [Example 12, didodecyl D-glucaramide]	ns

same assay, conditions: 1% gelling agent; cyclohexane/dioxane 1:1

SMILES	Gelation in cyclohexane/dioxane 1:1
CC(C)=CCCC(C)CCNC(=O)[C@@H](O)[C@@H](O)[C@H](O)[C@@H](O)C(=O)NCCC(C)CCC=C(C)C (stereo partly drawn) [Example 11, dicitronellyl D-glucaramide]	s

same assay, conditions: 1% gelling agent; dioxane/H2O 1:1

SMILES	Gelation in dioxane/H2O 1:1
CC(C)=CCCC(C)CCNC(=O)[C@@H](O)[C@@H](O)[C@H](O)[C@@H](O)C(=O)NCCC(C)CCC=C(C)C (stereo partly drawn) [Example 11, dicitronellyl D-glucaramide]	p
CCCCCCCCCCCCNC(=O)[C@@H](O)[C@@H](O)[C@H](O)[C@@H](O)C(=O)NCCCCCCCCCCCC [Example 12, didodecyl D-glucaramide]	ns

same assay, conditions: 1% gelling agent; dioxane/H2O 1:2

SMILES	Gelation in dioxane/H2O 1:2
CC(C)=CCCC(C)CCNC(=O)[C@@H](O)[C@@H](O)[C@H](O)[C@@H](O)C(=O)NCCC(C)CCC=C(C)C (stereo partly drawn) [Example 11, dicitronellyl D-glucaramide]	p
CCCCCCCCCCCCNC(=O)[C@@H](O)[C@@H](O)[C@H](O)[C@@H](O)C(=O)NCCCCCCCCCCCC [Example 12, didodecyl D-glucaramide]	ns

same assay, conditions: 1% gelling agent; dioxane/H2O 2:1

SMILES	Gelation in dioxane/H2O 2:1
CC(C)=CCCC(C)CCNC(=O)[C@@H](O)[C@@H](O)[C@H](O)[C@@H](O)C(=O)NCCC(C)CCC=C(C)C (stereo partly drawn) [Example 11, dicitronellyl D-glucaramide]	s
CCCCCCCCCCCCNC(=O)[C@@H](O)[C@@H](O)[C@H](O)[C@@H](O)C(=O)NCCCCCCCCCCCC [Example 12, didodecyl D-glucaramide]	c

same assay, conditions: 1% gelling agent; dioxane/H2O 3:1

SMILES	Gelation in dioxane/H2O 3:1
CC(C)=CCCC(C)CCNC(=O)[C@@H](O)[C@@H](O)[C@H](O)[C@@H](O)C(=O)NCCC(C)CCC=C(C)C (stereo partly drawn) [Example 11, dicitronellyl D-glucaramide]	s
CCCCCCCCCCCCNC(=O)[C@@H](O)[C@@H](O)[C@H](O)[C@@H](O)C(=O)NCCCCCCCCCCCC [Example 12, didodecyl D-glucaramide]	c

assay: Cold gelation: addition of a solution of the gelling agent (10% in NMP, 0.05 ml) to an organic solution (0.5 ml); format: physicochemical; set-up: key: g = gelation; s = soluble; p = precipitates; c = crystallizes; ns = not soluble; v = viscous; g* = unstable gel, precipitates; cg = crystalline gel; settings: 0.05 ml added to 0.5 ml 1,2-dichloroethane
Excerpt: as §1
Addition of a solution of the gelling agent (10% in NMP, 0.05 ml) to an organic solution (0.5 ml, “cold gelation”)

SMILES	Cold gelation in 1,2-dichloroethane
CCCCCCCCCCCCNC(=O)[C@@H](O)[C@@H](O)[C@H](O)[C@@H](O)C(=O)NCCCCCCCCCCCC [Example 12, didodecyl D-glucaramide]	p

same assay, conditions: 0.05 ml added to 0.5 ml Toluene

SMILES	Cold gelation in Toluene
CCCCCCCCCCCCNC(=O)[C@@H](O)[C@@H](O)[C@H](O)[C@@H](O)C(=O)NCCCCCCCCCCCC [Example 12, didodecyl D-glucaramide]	p

same assay, conditions: 0.05 ml added to 0.5 ml cyclohexane

SMILES	Cold gelation in cyclohexane
CCCCCCCCCCCCNC(=O)[C@@H](O)[C@@H](O)[C@H](O)[C@@H](O)C(=O)NCCCCCCCCCCCC [Example 12, didodecyl D-glucaramide]	p

same assay, conditions: 0.05 ml added to 0.5 ml methyl laurate

SMILES	Cold gelation in methyl laurate
CCCCCCCCCCCCNC(=O)[C@@H](O)[C@@H](O)[C@H](O)[C@@H](O)C(=O)NCCCCCCCCCCCC [Example 12, didodecyl D-glucaramide]	p

same assay, conditions: 0.05 ml added to 0.5 ml n-butyl acetate

SMILES	Cold gelation in n-butyl acetate
CCCCCCCCCCCCNC(=O)[C@@H](O)[C@@H](O)[C@H](O)[C@@H](O)C(=O)NCCCCCCCCCCCC [Example 12, didodecyl D-glucaramide]	p

assay: Solvent scope of N,N′-dialkylaldaramides (1%) or N,N′-dialkylpentaramides (1%): gelation/solubility behaviour in solvents; format: physicochemical; set-up: key: g = gelation; s = soluble; p = precipitates; c = crystallizes; ns = not soluble; v = viscous; g* = unstable gel, precipitates; cg = crystalline gel; settings: 1% gelling agent; 1,2-dichloroethane
Excerpt: It will be understood that the use of the present gelling agents or thickeners to prepare a gel or to thicken a composition is also encompassed by the invention. As is well known, gelling behavior of compounds or compositions is highly unpredictable. […] Preferably, the gelling phenomenon is thermo reversible.
as §1
Solvent scope of N,N′-dialkylaldaramides (1%) or N,N′-dialkylpentaramides (1%) 1-24 refers to the compounds prepared in Examples 1-23)

SMILES	Gelation/solubility behaviour in 1,2-dichloroethane
CC(C)=CCCC(C)CCNC(=O)[C@@H](O)[C@@H](O)[C@H](O)[C@@H](O)C(=O)NCCC(C)CCC=C(C)C (stereo partly drawn) [Example 11, dicitronellyl D-glucaramide]	s
CCCCCCCCCCCCNC(=O)[C@@H](O)[C@@H](O)[C@H](O)[C@@H](O)C(=O)NCCCCCCCCCCCC [Example 12, didodecyl D-glucaramide]	p

same assay, conditions: 1% gelling agent; 2-octanol

SMILES	Gelation/solubility behaviour in 2-octanol
CC(C)=CCCC(C)CCNC(=O)[C@@H](O)[C@@H](O)[C@H](O)[C@@H](O)C(=O)NCCC(C)CCC=C(C)C (stereo partly drawn) [Example 11, dicitronellyl D-glucaramide]	s
CCCCCCCCCCCCNC(=O)[C@@H](O)[C@@H](O)[C@H](O)[C@@H](O)C(=O)NCCCCCCCCCCCC [Example 12, didodecyl D-glucaramide]	ns

same assay, conditions: 1% gelling agent; 2-propanol

SMILES	Gelation/solubility behaviour in 2-propanol
CC(C)=CCCC(C)CCNC(=O)[C@@H](O)[C@@H](O)[C@H](O)[C@@H](O)C(=O)NCCC(C)CCC=C(C)C (stereo partly drawn) [Example 11, dicitronellyl D-glucaramide]	s
CCCCCCCCCCCCNC(=O)[C@@H](O)[C@@H](O)[C@H](O)[C@@H](O)C(=O)NCCCCCCCCCCCC [Example 12, didodecyl D-glucaramide]	ns

same assay, conditions: 1% gelling agent; Cyclohexane

SMILES	Gelation/solubility behaviour in Cyclohexane
CC(C)=CCCC(C)CCNC(=O)[C@@H](O)[C@@H](O)[C@H](O)[C@@H](O)C(=O)NCCC(C)CCC=C(C)C (stereo partly drawn) [Example 11, dicitronellyl D-glucaramide]	g*
CCCCCCCCCCCCNC(=O)[C@@H](O)[C@@H](O)[C@H](O)[C@@H](O)C(=O)NCCCCCCCCCCCC [Example 12, didodecyl D-glucaramide]	ns

same assay, conditions: 1% gelling agent; Dimethylsulfoxide

SMILES	Gelation/solubility behaviour in Dimethylsulfoxide
CC(C)=CCCC(C)CCNC(=O)[C@@H](O)[C@@H](O)[C@H](O)[C@@H](O)C(=O)NCCC(C)CCC=C(C)C (stereo partly drawn) [Example 11, dicitronellyl D-glucaramide]	s
CCCCCCCCCCCCNC(=O)[C@@H](O)[C@@H](O)[C@H](O)[C@@H](O)C(=O)NCCCCCCCCCCCC [Example 12, didodecyl D-glucaramide]	s

same assay, conditions: 1% gelling agent; Ethanol

SMILES	Gelation/solubility behaviour in Ethanol
CC(C)=CCCC(C)CCNC(=O)[C@@H](O)[C@@H](O)[C@H](O)[C@@H](O)C(=O)NCCC(C)CCC=C(C)C (stereo partly drawn) [Example 11, dicitronellyl D-glucaramide]	s
CCCCCCCCCCCCNC(=O)[C@@H](O)[C@@H](O)[C@H](O)[C@@H](O)C(=O)NCCCCCCCCCCCC [Example 12, didodecyl D-glucaramide]	p

same assay, conditions: 1% gelling agent; Hexadecane

SMILES	Gelation/solubility behaviour in Hexadecane
CC(C)=CCCC(C)CCNC(=O)[C@@H](O)[C@@H](O)[C@H](O)[C@@H](O)C(=O)NCCC(C)CCC=C(C)C (stereo partly drawn) [Example 11, dicitronellyl D-glucaramide]	p
CCCCCCCCCCCCNC(=O)[C@@H](O)[C@@H](O)[C@H](O)[C@@H](O)C(=O)NCCCCCCCCCCCC [Example 12, didodecyl D-glucaramide]	ns

same assay, conditions: 1% gelling agent; Toluene

SMILES	Gelation/solubility behaviour in Toluene
CC(C)=CCCC(C)CCNC(=O)[C@@H](O)[C@@H](O)[C@H](O)[C@@H](O)C(=O)NCCC(C)CCC=C(C)C (stereo partly drawn) [Example 11, dicitronellyl D-glucaramide]	p
CCCCCCCCCCCCNC(=O)[C@@H](O)[C@@H](O)[C@H](O)[C@@H](O)C(=O)NCCCCCCCCCCCC [Example 12, didodecyl D-glucaramide]	ns

same assay, conditions: 1% gelling agent; Water

SMILES	Gelation/solubility behaviour in Water
CC(C)=CCCC(C)CCNC(=O)[C@@H](O)[C@@H](O)[C@H](O)[C@@H](O)C(=O)NCCC(C)CCC=C(C)C (stereo partly drawn) [Example 11, dicitronellyl D-glucaramide]	c
CCCCCCCCCCCCNC(=O)[C@@H](O)[C@@H](O)[C@H](O)[C@@H](O)C(=O)NCCCCCCCCCCCC [Example 12, didodecyl D-glucaramide]	ns

same assay, conditions: 1% gelling agent; n-butylacetate

SMILES	Gelation/solubility behaviour in n-butylacetate
CC(C)=CCCC(C)CCNC(=O)[C@@H](O)[C@@H](O)[C@H](O)[C@@H](O)C(=O)NCCC(C)CCC=C(C)C (stereo partly drawn) [Example 11, dicitronellyl D-glucaramide]	p
CCCCCCCCCCCCNC(=O)[C@@H](O)[C@@H](O)[C@H](O)[C@@H](O)C(=O)NCCCCCCCCCCCC [Example 12, didodecyl D-glucaramide]	ns

same assay, conditions: 1% gelling agent; p-xylene

SMILES	Gelation/solubility behaviour in p-xylene
CC(C)=CCCC(C)CCNC(=O)[C@@H](O)[C@@H](O)[C@H](O)[C@@H](O)C(=O)NCCC(C)CCC=C(C)C (stereo partly drawn) [Example 11, dicitronellyl D-glucaramide]	p
CCCCCCCCCCCCNC(=O)[C@@H](O)[C@@H](O)[C@H](O)[C@@H](O)C(=O)NCCCCCCCCCCCC [Example 12, didodecyl D-glucaramide]	ns
